Experimental data published in patent publication US20210023223A1, “HYDROCARBON / LIPID - CAROTENOID COMPLEXES” (IP SCIENCE LIMITED, priority 2018, published 2021).

Columns and labels:
[1] = Defrosting time of frozen oil; assay type: physicochemical
Protocol: To determined defrosting time, frozen oil aliquots of 200 μI were incubated at ambient temperature of 20±2 C° until they were completely melted. Period of time, which was required for the tested sample to be melted, was measured with a laboratory timer (QUANTUM).

[2] = Spreadability of fat drops on hard surface (viscosity); assay type: physicochemical
Protocol: The described above enlargement of lipid droplets or fat globules, caused by carotenoids, translated into reduction of the viscosity of their product. This could be visually observed without any instrumentation—the larger surface area is covered by spreading a drop of oil or molten fat to lower the viscosity of this food mass.
When astaxanthin was added to the dairy butter reduction its viscosity could be visually observed After measuring and comparing the size of the spread drops this decrease was estimated to be about 3, (FIG. 5).

[3] = Size of pork fat globules, microscopy; assay type: physicochemical
Protocol: (§1) For measurement of lipid droplets and fat globules and quantification of their size binocular microscope Olympus BX41 was used with Cell^B software for morphometric analysis. All parameters were collected from 10 randomly selected microscopic fields at ×1000).
When carotenoids were added to animal fat, with a relatively high percentage of saturated fatty acid, a similar trend in increased fat globules was observed, although to a lesser degree. The maximum doses of lycopene or astaxanthin caused a similar increase in the pork fat globules diameter, only 50%, FIG. 2 and table 3.

Melting time at 37° C. [4] = assay type: physicochemical; settings: 1 mg per 1 g of the chocolate; control 19 minutes
Protocol: (§2) Approximately 20 mg of butter, or pork fat, or beef fat, or cocoa butter, or chocolate, with or without certain concentrations of carotenoids, were placed on the surface of the laboratory slides and incubated at 37° C. in a laboratory incubator (TLK39).
Results presented in FIG. 15 show three different carotenoids—lycopene, lutein and astaxanthin, can reduce, albeit to a different degree, the melting time of dark chocolate regardless of its tempering protocols: Protocol I—28° C., Protocol II—29° C., Protocol III—30° C.

[5] = test system: healthy volunteers, facial skin; assay: Astaxanthin trial, residual skin surface components (RSSC); assay type: in vivo, human; settings: 4 mg daily, 4 weeks
Protocol: Group I—31 (17 male and 14 female subjects, 40-80 years of age) for astaxanthin intervention;
Group I—participants received 4 mg daily doses of formulated astaxanthin,
Daily dose of each carotenoid product was taken in one capsule with the main evening meal for 4 weeks (from day 1 to day 28 of the study).
For RSSC sample collection all participants of the study were requested to avoid facial hygienic manipulations for 24 hours before material collection, which was carried out in the morning. These samples were collected only before initiation of astaxanthin supplementation (day 0) and at the end of the study (day 29). RSSC sample collection and preparation was performed according to previously described procedures. Briefly, RSSC samples were collected using polyester swabs from the surface of the facial skin (the sides of the nose). During the procedure two samples were taken (one swab per side). Each collected sample was placed on the surface of a microscope slide. A second microscope slide was pressed against the surface of the first one. […] All slides with collected samples (i.e. four slides per study participant per time point) were coded to provide sample anonymity for blinded analysis. All collected samples were sent to the laboratory of Lycotec Ltd for further processing and eventual microscopic examination.
For morphological analysis of RSSC samples one slide of the first pair was stained with hematoxylin and eosin in order to identify any cells or cell remnants. The second slide was stained using Oil Red O (Lipid Stain, ab150678, Abcam, Cambridge, UK) for lipid visualization and lipid droplet size evaluation. One slide from the other pair was stained with crystal violet solution (Gram staining) to assess the level of microorganism presence. The remaining slides were kept unstained for possible future use.
All stained smears were examined microscopically by a highly experienced cytopathologist. Microscopy was performed using Olympus BX41 laboratory microscope (Olympus, Japan) at ×1000 magnification.
The analysis included examining 40 fields of view within one smear. Dark field microscopy was applied for lipid crystal visualization. […]
The analysis of typical structural elements of the RSSC comprised lipid droplet measurements, counting characteristic lipid crystals and desquamated corneocytes, and evaluation of bacterial presence as previously described. The indicated micro objects/structures were quantified using Cell^B imaging software (Digital Imaging Solutions, Olympus, Japan). […]
In the morphological analysis of the RSSC quantitatively assessed parameters comprised lipid droplet size, numbers of desquamated corneocytes and lipid crystals and bacterial presence estimates (using Bacterial Presence Assessment Scale as described in our previous paper).

[6] = Oil volume needed to cover water surface; assay type: physicochemical; settings: 100 ml water sample; unmodified oil 21.5 ml
From the text: The other way to assess changes in oil viscosity, caused by carotenoids, would be to measure how much oil would be needed to cover a water surface of the same size. The lower viscosity of the oil the more spreadable it will be, and consequently less of it would be needed to cover this surface. Therefore, by measuring how much oil would be required to cover a certain surface of water we can asses how deep changes in the lipid folding were made by incorporating carotenoids.
An additional nine heating experiments were carried out when either pure Napolina olive oil, Napolina olive oil containing Astaxanthin (7 mg/ml), or Napolina olive oil containing Lycopene (7 mg/ml) was carefully poured over the surface of the water in order to prevent evaporation. The amount of oil required to completely cover the surface of the 100 ml water sample in the cup (diameter—7.4 cm) was measured (15 ml Falcon laboratory tubes and 1 ml Pipetman pitettes were used) and recorded for each oil type. The thickness of the resulting oil film (necessary to completely cover water surface) was then calculated. Temperature change curves were compared for uncovered water and water samples overlayed with three varieties of oil at heating temperatures of 200° C., 250° C. and 300° C. Water samples overlaid with oils were heated until water reached boiling point (usually at 99° C.). […]

[7] = Heating olive oil-in-water emulsions; assay type: physicochemical
[8] = Size of lipid droplets of dairy butter, microscopy; assay type: physicochemical
From the text: as §1
Incorporation of lycopene into the butter led to a significant increase in the size of its lipid droplets and many reached more than 100 or even 300 fold of their diameter. This effect was dose-dependent, and can already be observed for less than 1 molecule of lycopene to 224,000 molecules of butter triglycerides.

Melting time at 37° C. [9] = assay type: physicochemical; settings: 0.3 mg per 1 g of butter
Protocol: as §2

[10] = Size of beef fat globules, microscopy; assay type: physicochemical
From the text: as §1, with “×1000). In case of beef fat, lycopene incorporation led to a smaller increase of its fat globules, only by 30%, FIG. 3.” for “×1000).”

## CC1=C(/C=C/C(C)=C/C=C/C(C)=C/C=C/C=C(C)/C=C/C=C(C)/C=C/C2=C(C)C(=O)[C@@H](O)CC2(C)C)C(C)(C)C[C@H](O)C1=O [Astaxanthin, astaxanthin]
[1]; 0.3 mg per 1 ml of the oil
  Reduction of thawing time of Olive oil: 11 fold
[1]; 0.3 mg per 1 ml of the oil, controls 60 (lycopene) and 48 seconds (astaxanthin)
  Thawing time of frozen Olive oil: 4.3 s
[1]; 0.3 mg per 1 ml the oil
  Reduction of thawing time of Sunflower oil: above 3 fold
[2]
  Decrease of dairy butter viscosity from size of the spread drops: about 3
[3]; astaxanthin dose 0.1 per 30 g of pork fat
  Size of pork fat globules, Mean: 5.687 μm
[3]; astaxanthin dose 0.5 per 30 g of pork fat
  Size of pork fat globules, Mean: 4.937 μm
[3]; astaxanthin dose 1.0 per 30 g of pork fat
  Size of pork fat globules, Mean: 5.333 μm
[3]; astaxanthin dose 2.0 per 30 g of pork fat
  Size of pork fat globules, Mean: 6.812 μm
[3]; astaxanthin dose 3.5 per 30 g of pork fat
  Size of pork fat globules, Mean: 8.307 μm
[3]; astaxanthin dose 7.0 per 30 g of pork fat
  Size of pork fat globules, Mean: 7.9 μm
[3]; astaxanthin dose 10.0 per 30 g of pork fat
  Size of pork fat globules, Mean: 8.692 μm
[3]; maximum doses
  Increase in the pork fat globules diameter: 50%
Melting time at 37° C. [4]
  Melting time of dark chocolate: 5 min
[5]; P=0.0075
  Corneocyte desquamation levels at the end of the study: clearly reduced in most volunteers
[5]; subgroup of obese subjects
  Lipid droplet size, day 29 vs day 0: statistically significant (P=0.0214) increase
[5]; whole group, P=0.0683
  Lipid droplet size, day 29 vs day 0: has not reached statistical significance
[5]; whole volunteer group
  Microbial presence in RSSC samples: statistically significant (P=0.0367) decrease
[6]
  Oil volume needed to cover the surface of the water: 15 mL
[7]; 50%:50%, 1 molecule lycopene to 67,000 or astaxanthin to 71,000 fatty acids, control 10° C.
  Rate of heating of olive oil emulsion in water in the first 3 minutes: 23 °C
[7]; water to olive oil 75%:25%, control 62° C.
  Maximum temperature the emulsion could reach: 90 °C
[8]; astaxanthin dose 0.1 per 30 g of butter
  Size of butter lipid droplets, Mean: 7.44 µm
[8]; astaxanthin dose 0.5 per 30 g of butter
  Size of butter lipid droplets, Mean: 9.23 µm
[8]; astaxanthin dose 1.0 per 30 g of butter
  Size of butter lipid droplets, Mean: 12.4 µm
[8]; astaxanthin dose 2.0 per 30 g of butter
  Size of butter lipid droplets, Mean: 14.7 µm
[8]; astaxanthin dose 3.5 per 30 g of butter
  Size of butter lipid droplets, Mean: 12.2 µm
[8]; astaxanthin dose 7.0 per 30 g of butter
  Size of butter lipid droplets, Mean: 25 µm
[8]; astaxanthin dose 10.0 per 30 g of butter
  Size of butter lipid droplets, Mean: 34.1 µm
Melting time at 37° C. [9]
  Reduction of melting time of dairy butter: more than 3.5 fold
Melting time at 37° C. [9]; control 140 seconds
  Melting time of dairy butter: 38 s
[10]
  Increase of beef fat globules diameter: 2.5 folds
